Values of other authors in US6423320B1, “Inhibitor of immunoglobulin E antibody production” (Tayca Corporation, priority 1997, dated 2002).
Counter-ions that a name gives are not always drawn.

System: IgE antibody production
Conditions: Bio Industry, Vol. 13, No. 12, pp. 42-50 (1996)

## CCOCC(O)COc1ccc(NC(=O)CC[S+](C)C)cc1 (stereo not shown) [IPD, Suplatast Tosylate]
  Inhibitory action on the production of IgE antibody: extremely weak inhibitory action
